The source of these data is US20180334436A1 (VIIV HEALTHCARE UK LIMITED, priority 2015, published 2018).

This assay deals with HIV. The assay can be described thus: MT4 assay (anti-HIV activity). The format is cell-based. The settings on record: Human immunodeficiency virus 1, 96 h, antiviral HIV activity in HTLV-1 transformed cell line MT-4; luciferase read 96 hours later; 10 point dose response. The method, then: Antiviral HIV activity and cytotoxicity values for compounds of the invention from Table 1 were measured in parallel in the HTLV-1 transformed cell line MT-4 based on the method previously described (Hazen et al., 2007, In vitro antiviral activity of the novel, tyrosyl-based human immunodeficiency virus (HIV) type 1 protease inhibitor brecanavir (GW640385) in combination with other antiretrovirals and against a panel of protease inhibitor-resistant HIV (Hazen et al., “In vitro antiviral activity of the novel, tyrosyl-based human immunodeficiency virus (HIV) type 1 protease inhibitor brecanavir (GW640385) in combination with other antiretrovirals and against a panel of protease inhibitor-resistant HIV”, Antimicrob. Agents Chemother. 2007, 51: 3147-3154; and Pauwels et al., “Sensitive and rapid assay on MT-4 cells for the detection of antiviral compounds against the AIDS virus”, J. of Virological Methods 1987, 16: 171-185).
Luciferase activity was measured 96 hours later by adding a cell titer glo (Promega, Madison, Wis.). Percent inhibition of cell protection data was plotted relative to no compound control. Under the same condition, cytotoxicity of the compounds was determined using cell titer Glo™ (Promega, Madison, Wis.). IC50s were determined from a 10 point dose response curve using 3-4-fold serial dilution for each compound, which spans a concentration range >1000 fold.
These values are plotted against the molar compound concentrations using the standard four parameter logistic equation:
y=((Vmax*x̂n)/(K̂n+x̂n))+Y2
Y2=minimum y n=slope factor
Vmax=maximum y x=compound concentration [M]
Usually IC50 stands for the concentration needed to halve the response being measured. Turning to `COc1ccc(C(=O)N2CCc3c(C)c([C@H](OC(C)(C)C)C(=O)O)c(-c4cc(F)c5c(c4C)CCCO5)c(C)c3C2)cc1C` (atropisomer, axis not shown) [Example 97, (S)-2-(tert-butoxy)-2-((R)-7-(8-fluoro-5-methylchroman-6-yl)-2-(4-methoxy-3-methylbenzoyl)-5,8-dimethyl-1,2,3,4-tetrahydroisoquinolin-6-yl)acetic Acid], the IC50 was 36 nM.
Turning to `Cc1c(-c2c(C)c3c(c(C)c2[C@H](OC(C)(C)C)C(=O)O)CC(=O)N(c2cccc(F)c2)C3)cc(F)c2c1CCCO2` (atropisomer, axis not shown) [Example 103, (S)-2-(tert-Butoxy)-2-((R)-7-(8-fluoro-5-methylchroman-6-yl)-2-(3-fluorophenyl)-5,8-dimethyl-3-oxo-1,2,3,4-tetrahydroisoquinolin-6-yl)acetic Acid], the IC50 is 2 nM.
For `Cc1c(-c2c(C)c3c(c(C)c2[C@H](OC(C)(C)C)C(=O)O)CC(=O)N(C2CCCCC2)C3)cc(F)c2c1CCCO2` (atropisomer, axis not shown) [Example 104, (S)-2-(tert-butoxy)-2-((R)-2-cyclohexyl-7-(8-fluoro-5-methylchroman-6-yl)-5,8-dimethyl-3-oxo-1,2,3,4-tetrahydroisoquinolin-6-yl)acetic Acid] the value was 2 nM; for `Cc1c(-c2c(C)c3c(c(C)c2[C@H](OC(C)(C)C)C(=O)O)CC(=O)N(C2CCC(C)(C)CC2)C3)cc(F)c2c1CCCO2` (atropisomer, axis not shown) [Example 105, (S)-2-(tert-butoxy)-2-((R)-2-(4,4-dimethylcyclohexyl)-7-(8-fluoro-5-methylchroman-6-yl)-5,8-dimethyl-3-oxo-1,2,3,4-tetrahydroisoquinolin-6-yl)acetic Acid], 2 nM.
To `Cc1c(-c2c(C)c3c(c(C)c2[C@H](OC(C)(C)C)C(=O)O)CC(=O)N(CC2CCCCC2)C3)cc(F)c2c1CCCO2` (atropisomer, axis not shown) [Example 106, (S)-2-(tert-butoxy)-2-((R)-2-(cyclohexylmethyl)-7-(8-fluoro-5-methylchroman-6-yl)-5,8-dimethyl-3-oxo-1,2,3,4-tetrahydroisoquinolin-6-yl)acetic Acid] belongs 3 nM.
As for `COc1c(F)cccc1N1Cc2c(C)c(-c3cc(F)c4c(c3C)CCCO4)c([C@H](OC(C)(C)C)C(=O)O)c(C)c2CC1=O` (atropisomer, axis not shown) [Example 107, (S)-2-(tert-butoxy)-2-((R)-2-(3-fluoro-2-methoxyphenyl)-7-(8-fluoro-5-methylchroman-6-yl)-5,8-dimethyl-3-oxo-1,2,3,4-tetrahydroisoquinolin-6-yl)acetic Acid], the IC50 was 2 nM.
With `Cc1c(-c2c(C)c3c(c(C)c2[C@H](OC(C)(C)C)C(=O)O)CC(=O)N(C2CCOCC2)C3)cc(F)c2c1CCCO2` (atropisomer, axis not shown) [Example 108, (S)-2-(tert-butoxy)-2-((R)-7-(8-fluoro-5-methylchroman-6-yl)-5,8-dimethyl-3-oxo-2-(tetrahydro-2H-pyran-4-yl)-1,2,3,4-tetrahydroisoquinolin-6-yl)acetic Acid], the IC50 worked out at 13 nM.
Take `Cc1c(-c2c(C)c3c(c(C)c2[C@H](OC(C)(C)C)C(=O)O)C(C)(C)C(=O)N(C2CCCCC2)C3)cc(F)c2c1CCCO2` (atropisomer, axis not shown) [Example 109]: the IC50 came to 4 nM.
With `Cc1c(-c2c(C)c3c(c(C)c2[C@H](OC(C)(C)C)C(=O)O)CC(=O)N(CC(C)C)C3)cc(F)c2c1CCCO2` (atropisomer, axis not shown) [Example 110], the IC50 is 3 nM.
For `Cc1c(-c2c(C)c3c(c(C)c2[C@H](OC(C)(C)C)C(=O)O)CC(=O)N(C2CCN(C)CC2)C3)cc(F)c2c1CCCO2` (atropisomer, axis not shown) [Example 112, (S)-2-(tert-butoxy)-2-((R)-7-(8-fluoro-5-methylchroman-6-yl)-5,8-dimethyl-2-(1-methylpiperidin-4-yl)-3-oxo-1,2,3,4-tetrahydroisoquinolin-6-yl)acetic Acid] the value was 1040 nM; for `Cc1c(-c2c(C)c3c(c(C)c2[C@H](OC(C)(C)C)C(=O)O)CC(=O)N(CC2CCOCC2)C3)cc(F)c2c1CCCO2` (atropisomer, axis not shown) [Example 113], 14 nM; for `Cc1c(-c2c(C)c3c(c(C)c2[C@H](OC(C)(C)C)C(=O)O)CC(=O)N(C2CCC(F)(F)CC2)C3)cc(F)c2c1CCCO2` (atropisomer, axis not shown) [Example 114, (S)-2-(tert-butoxy)-2-((R)-2-(4,4-difluorocyclohexyl)-7-(8-fluoro-5-methylchroman-6-yl)-5,8-dimethyl-3-oxo-1,2,3,4-tetrahydroisoquinolin-6-yl)acetic Acid], 3 nM.
As to `Cc1c(-c2c(C)c3c(c(C)c2[C@H](OC(C)(C)C)C(=O)O)CC(=O)N(C2CCN(C(=O)OC(C)(C)C)CC2)C3)cc(F)c2c1CCCO2` (atropisomer, axis not shown) [Example 115], the IC50 is 116 nM.
To `Cc1c(-c2c(C)c3c(c(C)c2[C@H](OC(C)(C)C)C(=O)O)CC(=O)N(C2CCCCC2)C3)cc(Cl)c2c1CCCO2` (atropisomer, axis not shown) [Example 118] belongs 4 nM; to `Cc1c(-c2c(C)c3c(c(C)c2[C@H](OC(C)(C)C)C(=O)O)CC(=O)N(C2CCCCC2)C3)ccc2c1NCCO2` (atropisomer, axis not shown) [Example 119, (S)-2-(tert-butoxy)-2-((R)-2-cyclohexyl-5,8-dimethyl-7-(5-methyl-3,4-dihydro-2H-benzo[b][1,4]oxazin-6-yl)-3-oxo-1,2,3,4-tetrahydroisoquinolin-6-yl)acetic Acid], 8 nM.
For `Cc1c(-c2c(C)c3c(c(C)c2[C@H](OC(C)(C)C)C(=O)O)CC(=O)N(C2CCCCC2)C3)ccc2c1CCCO2` (atropisomer, axis not shown) [Example 120, (S)-2-(tert-butoxy)-2-((R)-2-cyclohexyl-5,8-dimethyl-7-(5-methylchroman-6-yl)-3-oxo-1,2,3,4-tetrahydroisoquinolin-6-yl)acetic Acid] the value was 2 nM; for `Cc1c(-c2c(C)c3c(c(C)c2[C@H](OC(C)(C)C)C(=O)O)CCN(C2CCCCC2)C3)cc(F)c2c1CCCO2` (atropisomer, axis not shown; (M)) [Example 67, (2S)(M)-2-(tert-butoxy)-2-(2-cyclohexyl-7-(8-fluoro-5-methylchroman-6-yl)-5,8-dimethyl-1,2,3,4-tetrahydroisoquinolin-6-yl)acetic Acid], 5 nM.
`Cc1c(-c2c(C)c3c(c(C)c2[C@H](OC(C)(C)C)C(=O)O)CCN(S(=O)(=O)C2CCCCC2)C3)ccc2c1CCCO2` (atropisomer, axis not shown; (M)) [Example 83, (2S)(M)-2-(tert-butoxy)-2-(-2-(cyclohexylsulfonyl)-5,8-dimethyl-7-(5-methylchroman-6-yl)-1,2,3,4-tetrahydroisoquinolin-6-yl)acetic Acid]: the IC50 was determined as 46 nM.
Take `Cc1c(-c2c(C)c3c(c(C)c2[C@H](OC(C)(C)C)C(=O)O)CCN(C2CCCCC2)C3)ccc2c1CCCO2` (atropisomer, axis not shown; (M)) [Example 84, (S)(M)-2-(tert-butoxy)-2-(2-cyclohexyl-5,8-dimethyl-7-(5-methylchroman-6-yl)-1,2,3,4-tetrahydroisoquinolin-6-yl)acetic Acid]: the concentration for half-maximal inhibition (IC50) amounted to 5 nM.
